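Cultured in 96-well plates, cells were exposed to test compound for 48 hours across five concentrations. GI50: concentration for 50% inhibition of growth. At the TGI there is no net growth.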

Among the test systems are T-47D breast; SN12C renal; SK-MEL-2 melanoma; SF-539 CNS; OVCAR-3 ovarian; MCF7 breast; KM12 colon; HL-60(TB) leukemia; SK-MEL-28 melanoma; HOP-62 NSCLC.
Holding throughout (assay): NCI-60 cell line screen, 48 h

`COc1cc2c(cc1OCCCCCN1CCN(c3cc(=O)oc4c(C)c(OC)ccc34)CC1)N=C[C@@H]1CCCN1C2=O`: the GI50 was < 0.0174 µM in the assay with T-47D breast; < 0.01 µM in the assay on SN12C renal; < 0.01 µM in the assay with SK-MEL-2 melanoma; < 0.0112 µM in the assay on SF-539 CNS; < 0.01 µM with OVCAR-3 ovarian; < 0.01 µM in the assay with MCF7 breast. Besides, the GI50 was < 0.0169 µM in the assay with KM12 colon, < 0.01 µM in the assay with HL-60(TB) leukemia, < 0.0235 µM in the assay on SK-MEL-28 melanoma and < 0.0107 µM with HOP-62 NSCLC. Also, the TGI was 0.0699 µM with SN12C renal; < 0.0175 µM in the assay with SK-MEL-2 melanoma; 0.128 µM with SF-539 CNS; 0.0324 µM in the assay on OVCAR-3 ovarian; 3.43 µM in the assay with MCF7 breast; 0.0965 µM with KM12 colon. Further, the TGI in the assay on HL-60(TB) leukemia is 1.2 µM; in the assay on SK-MEL-28 melanoma, 0.163 µM; with HOP-62 NSCLC, 0.0301 µM.
Turning to `C[C@]12CC[C@@H]3c4ccc(OCC(=O)O)cc4CC[C@H]3[C@@H]1CCC2=O`, the TGI in the assay with T-47D breast, with SN12C renal, with SK-MEL-2 melanoma, in the assay on SF-539 CNS, in the assay with OVCAR-3 ovarian and with MCF7 breast was > 100 µM in each case. Besides, the TGI is > 100 µM in the assay with KM12 colon, 0.317 µM with HL-60(TB) leukemia, > 100 µM in the assay on SK-MEL-28 melanoma and > 100 µM in the assay on HOP-62 NSCLC.
Regarding `COc1cc2c3c(n(CCCn4ccnc4)c(=O)c2cc1OC)-c1ccccc1C3=O`, the GI50 in the assay with T-47D breast is 0.0357 µM; in the assay on SN12C renal, < 0.0467 µM; with SK-MEL-2 melanoma, 0.927 µM; with SF-539 CNS it was < 0.0373 µM; with OVCAR-3 ovarian, < 0.0471 µM; with MCF7 breast, < 0.02 µM. Further, the GI50 with KM12 colon was 0.126 µM; in the assay with HL-60(TB) leukemia it was < 0.01 µM; in the assay with SK-MEL-28 melanoma, 1.59 µM; in the assay on HOP-62 NSCLC it was < 0.0162 µM. For the same molecule, the TGI with T-47D breast is 0.509 µM; in the assay on SN12C renal it was 5.4 µM; in the assay on SK-MEL-2 melanoma, 17.3 µM; in the assay on SF-539 CNS it was 0.441 µM; in the assay on OVCAR-3 ovarian, 0.484 µM; in the assay with MCF7 breast, > 43.4 µM. Further, the TGI was 5.03 µM with KM12 colon, 0.102 µM in the assay on HL-60(TB) leukemia, > 100 µM in the assay with SK-MEL-28 melanoma and 0.141 µM in the assay with HOP-62 NSCLC.
Take `O=C(Nc1cccc(-c2nc3ccccc3[nH]2)c1)c1cccc(NC(=O)c2ccco2)c1`: the GI50 is 1.75 µM with T-47D breast; 2.07 µM with SN12C renal; 5.33 µM with SK-MEL-2 melanoma; 1.49 µM with SF-539 CNS; 1.97 µM in the assay on OVCAR-3 ovarian; 1.52 µM in the assay on MCF7 breast. Further, the GI50 with KM12 colon is 2.27 µM; in the assay on HL-60(TB) leukemia, 5.43 µM; in the assay with SK-MEL-28 melanoma, 1.75 µM; with HOP-62 NSCLC it was 2.06 µM. Moreover, the TGI in the assay with T-47D breast amounted to 3.79 µM; in the assay on SN12C renal, 4.88 µM; in the assay with SK-MEL-2 melanoma it was 16.9 µM; in the assay with SF-539 CNS it was 2.88 µM; in the assay with OVCAR-3 ovarian it was 3.39 µM; in the assay with MCF7 breast, 3.02 µM. The TGI in the assay on KM12 colon came to 5.61 µM; in the assay on HL-60(TB) leukemia it was 17.4 µM; in the assay with SK-MEL-28 melanoma, 3.31 µM; in the assay on HOP-62 NSCLC, 4.3 µM.
On to `COc1cc(N)ccc1Nc1c2ccccc2nc2ccccc12`, for which the GI50 in the assay with T-47D breast is 15.5 µM; in the assay on SN12C renal it was 7.73 µM; with SK-MEL-2 melanoma, 23.3 µM; in the assay on SF-539 CNS, 12.1 µM; in the assay on OVCAR-3 ovarian, 12.2 µM; with MCF7 breast it was 2.27 µM. Moreover, the GI50 is 7.56 µM with KM12 colon, 5.49 µM in the assay with HL-60(TB) leukemia, 16.3 µM with SK-MEL-28 melanoma and 9.98 µM in the assay on HOP-62 NSCLC. Further, the TGI in the assay on T-47D breast is 47.8 µM; in the assay on SN12C renal, 24.9 µM; in the assay with SK-MEL-2 melanoma, 44.9 µM; in the assay with SF-539 CNS, 26.5 µM; in the assay with OVCAR-3 ovarian, 25.4 µM; in the assay on MCF7 breast, 13.5 µM. Besides, the TGI with KM12 colon is 20.5 µM; with HL-60(TB) leukemia, 18.5 µM; with SK-MEL-28 melanoma, 34.9 µM; in the assay on HOP-62 NSCLC it was 27.9 µM.
On to `CN1CCN(Cc2ccc(NC(=O)c3[nH]ncc3Nc3ccnc4ccsc34)cc2)CC1`, for which the GI50 with T-47D breast is 4.95 µM; in the assay on SN12C renal, 2.78 µM; with SK-MEL-2 melanoma, 3.86 µM; in the assay on SF-539 CNS, 1.35 µM; in the assay on OVCAR-3 ovarian, 2.34 µM; in the assay with MCF7 breast it was 0.489 µM. The GI50 in the assay on KM12 colon was 2.35 µM; in the assay with HL-60(TB) leukemia, 2.49 µM; with SK-MEL-28 melanoma, 5.23 µM; in the assay on HOP-62 NSCLC, 2.82 µM. Further, the TGI turned out to be 50.6 µM with T-47D breast; 14.4 µM with SN12C renal; 14.7 µM in the assay on SK-MEL-2 melanoma; 3.42 µM in the assay on SF-539 CNS; 11.5 µM in the assay on OVCAR-3 ovarian; 11.7 µM in the assay with MCF7 breast. Besides, the TGI in the assay on KM12 colon was determined as 11.2 µM; in the assay on HL-60(TB) leukemia, 5.85 µM; in the assay with SK-MEL-28 melanoma, 18.4 µM; in the assay with HOP-62 NSCLC, 14.2 µM.
`COc1ccc2c(c1)C(=O)c1c-2c(N2CCN(C(=O)CN(C)C)CC2)nc2ccccc12`: the GI50 was 16.2 µM in the assay with T-47D breast; 13 µM in the assay with SN12C renal; 18.4 µM with SK-MEL-2 melanoma; 15.1 µM with SF-539 CNS; 19.5 µM in the assay with OVCAR-3 ovarian; 12.3 µM in the assay on MCF7 breast. In addition, the GI50 is 25.4 µM in the assay with KM12 colon, 20 µM in the assay with HL-60(TB) leukemia, 1.29 µM with SK-MEL-28 melanoma and 13.6 µM in the assay on HOP-62 NSCLC. In addition, the TGI in the assay with T-47D breast came to 34.1 µM; in the assay on SN12C renal it was 27.9 µM; in the assay with SK-MEL-2 melanoma it was 39 µM; with SF-539 CNS, 30.3 µM; with OVCAR-3 ovarian, 58.6 µM; with MCF7 breast, 27.6 µM. Besides, the TGI in the assay on KM12 colon came to 83.1 µM; in the assay with HL-60(TB) leukemia, 52.4 µM; in the assay with SK-MEL-28 melanoma, 3.16 µM; in the assay with HOP-62 NSCLC, 29.2 µM.
For the molecule `C=C1C(=O)O[C@H]2[C@H]1CC/C(COC(=O)NCCc1c[nH]c3ccccc13)=C\CC[C@@]1(C)O[C@@H]21`, the GI50 in the assay on T-47D breast was 1.7 µM; in the assay with SN12C renal, 1.2 µM; with SK-MEL-2 melanoma, 5.53 µM; in the assay with SF-539 CNS it was 1.62 µM; with OVCAR-3 ovarian, 1.04 µM; in the assay with MCF7 breast, 0.585 µM. Also, the GI50 in the assay on KM12 colon was 5.41 µM; with HL-60(TB) leukemia it was 0.583 µM; in the assay on SK-MEL-28 melanoma, 1.38 µM; with HOP-62 NSCLC it was 5.25 µM. Further, the TGI in the assay with T-47D breast was found to be 4.41 µM; in the assay with SN12C renal, 3.15 µM; in the assay on SK-MEL-2 melanoma, 20.1 µM; in the assay with SF-539 CNS, 3.29 µM; in the assay on OVCAR-3 ovarian, 2.31 µM; in the assay with MCF7 breast it was 2.26 µM. Besides, the TGI turned out to be 21.4 µM with KM12 colon, 2.86 µM in the assay on HL-60(TB) leukemia, 3.11 µM with SK-MEL-28 melanoma and 19.8 µM with HOP-62 NSCLC.

The values above are taken from PubChem BioAssay (NCI).
